This is an account of results in publication PMC4028696, “Development of a screen to identify selective small molecules active against patient-derived metastatic and chemoresistant breast cancer cells” (Breast Cancer Research : BCR, 2013).

Common to all, as to assay type: cell-based, human
One assay deals with PE1007070 cells. The assay is described as follows: Dose response assay, ATPlite viability, four days. To be noted: Homo sapiens, 96 h, PE1007070, four days of treatment, ATP viability. The procedure: (§1) Cells were seeded in white 96-well plates (Costar, Tewksbury, MA, USA) in 100 μL of their respective media at varying densities to achieve 80% to 90% confluency after five days in culture. The compounds dissolved in DMSO were diluted in their corresponding media containing 2% FBS and an EP Motion 5075 (Eppendorf North America, Hauppauge, NY, USA) liquid handler was utilized to perform a serial dilution. […] After the cells were cultured for 24 hours, the media were aspirated and the cells were treated with the compounds and vehicle controls in triplicate. After four days of treatment, viability was determined utilizing the ATPlite 1step assay system (Perkin Elmer, Waltham, MA, USA) according to the manufacturer's instructions. Luminescence measurements were acquired utilizing a Perkin Elmer 2104 EnVision plate reader. Raw luminescence values were normalized to the DMSO vehicle control wells.
(Cellular ATP, detected with luciferase, serves as a proxy for viable cell number.)

In assay [1] the test system is PE1008032 cells. The assay is described as follows: Dose response assay, ATPlite viability, four days. To be noted: Homo sapiens, 96 h, PE1008032, four days of treatment, ATP viability. The procedure: as §1
The subject of another assay is hTERT-HMEC cells. The assay is described as follows: Dose response assay, ATPlite viability, four days. The procedure:
as §1

For another assay, the system named is PE904557a cells. The assay is described as follows: Dose response assay, ATPlite viability, four days. To be noted: Homo sapiens, 96 h, four days of treatment, ATP viability, N/A = data could not be fitted. The procedure: as §1
Assay [2] concerns T47D cells. The assay is described as follows: Dose response assay, ATPlite viability, four days. The conditions noted are these: Homo sapiens, 96 h, four days of treatment, ATP viability. How it is done: as §1
Assay [3] has as its system MCF-7 cells. The assay is described as follows: Dose response assay, ATPlite viability, four days. To be noted: Homo sapiens, MCF7, 96 h; MCF-7, four days of treatment, ATP viability. How it is done: as §1
Assay [4] has as its system MDA-MB-231 cells. The assay is described as follows: Dose response assay, ATPlite viability, four days. The conditions noted are these: Homo sapiens, 96 h; MDA-MB-231, four days of treatment, ATP viability. How it is done:
as §1

The test system of assay [5] is PE1008032 cells. The assay is described as follows: AAF-Glo released protease (cell death) assay. The conditions noted are these: PE1008032, 30 μM, 24 to 120 hours. How it is done:
(§2) Adherent cells were seeded in two identical white 96-well plates (Costar) in 100 μL of their respective media at varying densities to achieve 80% to 90% confluency at the end of the assay. After 24 hours, the media were aspirated and the cells were treated with 30 μM C-6 or a matched 0.03% (v/v) DMSO vehicle control in the corresponding media containing 2% FBS. For suspension cultures, cells were first seeded in 75 μL of media. At the start of treatment, 25 μL of a 4× concentration of C-6 or a matched (v/v) DMSO vehicle control was added to each well such that the final volume in each well was 100 μL and the final concentration of C-6 was 30 μM. For the caspase activity assays, additional wells were treated with 1 μM staurosporine. After culturing for the appropriate amount of time, either the AAF-Glo or Caspase-Glo assays (Promega, Madison, WI, USA) were performed on one 96-well plate according to the manufacturer's instructions. For the Caspase-Glo assay, cell viability was determined for the additional 96-well plate utilizing the ATPlite 1step assay system (Perkin Elmer) according to the manufacturer's instructions. For the AAF-Glo assay, the total protein in each well of the additional plate was measured using the BCA protein assay kit (Peirce, Rockford, IL, USA). Luminescence measurements were acquired utilizing a Perkin Elmer 2104 EnVision plate reader. Raw luminescence values for each assay were normalized to the DMSO vehicle control wells. The values for the Caspase-Glo or AAF-Glo assays were then normalized to the ATPlite values or total protein, respectively, in order to account for differences in cell numbers and were plotted as an average ± SD of four wells per condition.

The test system of assay [6] is PE cells from three different patients. The assay is described as follows: AAF-Glo released protease (cell death) assay. To be noted: 30 μM, 24 to 120 hours, vs DMSO. How it is done: as §2
The subject of assay [7] is MCF-7 cells. The assay is described as follows: AAF-Glo released protease (cell death) assay. To be noted: MCF-7, 30 μM, 24 to 120 hours, vs DMSO. How it is done:
as §2

In assay [8] the test system is MDA-MB-231 cells. The assay is described as follows: AAF-Glo released protease (cell death) assay. The conditions noted are these: MDA-MB-231, 30 μM, 24 to 120 hours. How it is done:
as §2

The test system of assay [9] is MCF-10A cells. The assay is described as follows: AAF-Glo released protease (cell death) assay. To be noted: 30 μM, 24 to 120 hours, vs DMSO. How it is done:
as §2

A further assay has as its system caspase-3/7, -8 or -9. The assay is described as follows: Caspase-Glo caspase activity assay. The conditions noted are these: 30 μM, 24 or 48 hours, normalized to ATP viability. The procedure:
as §2, with “After culturing for the appropriate amount of time, either the AAF-Glo or Caspase-Glo assays (Promega, Madison, WI, USA) were performed on one 96-well plate according to the manufacturer's instructions.” left out, “The values for the Caspase-Glo or AAF-Glo assays were then normalized to the ATPlite values or total protein, respectively, in order to account for differences in cell numbers and were plotted as an average ± SD of four wells per condition.” left out

Assay [10] deals with T47D cells. The assay is described as follows: BrdU proliferation and cell cycle analysis. To be noted: 15 μM, 24 or 48 hours vs DMSO. The procedure:
(§3) Cells were seeded in six-well plates (BD Falcon) in their respective media at different densities to attain 70% to 80% confluency at the end of the assay. In order to compare the proliferation rate of established cell lines compared to patient-derived cells, 10 μM of 5-bromo-2-deoxyuridine (BrdU) (Sigma) was added to the culture media for 30 minutes or 6 hours in triplicate. To determine the impact of C-6 on the cell cycle, cells were treated with 15 μM C-6 or 0.02% (v/v) DMSO vehicle in the corresponding media containing 2% FBS for 24 and 48 hours in triplicate followed by treatment with 10 μM BrdU for 30 minutes. Immediately following BrdU treatment, floating cells were collected and adherent cells were trypsinized. Floating and adherent cells were combined, washed with HBSS containing 2% FBS, fixed with 70% ethanol and stored overnight at -20°C. Cells were then treated with 2 M HCl containing 0.5% Triton X-100 (EMD Millipore) for 30 minutes at room temperature and were washed with 0.1 M sodium tetraborate (Sigma) at pH = 8.5. Next, cells were blocked with staining buffer, which consisted of 1% BSA, 0.5% Tween-20 (Fisher Scientific) in PBS, for five minutes and were stained with a mouse monoclonal BrdU antibody (Developmental Studies Hybridoma Bank, Iowa City, IA, USA) for one hour on ice. Cells were subsequently washed and stained with anti-mouse Alexa Fluor® 488 (Life Technologies) for 30 minutes on ice, washed, stained with 5 μg/mL of propidium iodide (EMD Millipore) and passed through a 70-μm cell strainer. Cell suspensions were analyzed using a FACScan flow cytometer and the resulting data were analyzed with Flow Jo software. The average ± SD of three wells for each condition was calculated.

Assay [11] concerns MCF-7 cells. The assay is described as follows: BrdU proliferation and cell cycle analysis. The conditions noted are these: MCF-7, 15 μM, 24 or 48 hours vs DMSO. How it is done: as §3
Assay [12] deals with MDA-MB-231 cells. The assay is described as follows: BrdU proliferation and cell cycle analysis. To be noted: MDA-MB-231, 15 μM, 24 or 48 hours vs DMSO. How it is done:
as §3

Assay [13] concerns MCF-10A cells. The assay is described as follows: BrdU proliferation and cell cycle analysis. The conditions noted are these: 15 μM, 24 or 48 hours vs DMSO. The procedure:
as §3

For `COc1cc(OC)cc(C(C)c2ccc(NC(=O)OC(C)(C)C)cc2)c1` (centres unmarked) [C-6], the EC50 with PE1007070 cells turned out to be 24.4 µM; in the assay with PE1008032 cells [1], 33.3 µM; in the assay on PE904557a cells it was 75.7 µM; in the assay with T47D cells [2], 8.29 µM; in the assay on MCF-7 cells [3], 11 µM; with MDA-MB-231 cells [4], 10.5 µM. For the same molecule, the effect on viability entry with hTERT-HMEC cells was “did not significantly reduce the viability”. The “relative AAF-Glo activity” value with PE1008032 cells [5] was “did not have increased AAF-Glo activity”; in assay [6], “significant increase”; in the assay on MCF-7 cells [7] it was “significant increase”; with MDA-MB-231 cells [8], “did not have increased AAF-Glo activity”; in the assay on MCF-10A cells [9], “did not cause an increase”. The caspase activity entry in the assay on caspase-3/7, -8 or -9 was “did not induce significant caspase activity”. Also, the “percentage of cells in G1/G0” value in the assay on T47D cells [10], with MCF-7 cells [11] and in the assay on MDA-MB-231 cells [12] was “increased” throughout. Also, the cell cycle profile result in the assay with MCF-10A cells [13] is listed as “did not show a statistically significant difference”.

One may read the EC50 as the concentration needed to bring the measured effect to its halfway point. The low end stands for a more potent agent, the high end for a less potent agent.
